Reference: US20250353841A1 (BIOGEN MA INC., priority 2022, published 2025)

System: mutant Huntington (HTT) protein
Experiment: HTT Mutant HTRF iPSC assay (mHTT protein lowering)
Type: cell-based
Settings: human iPSC derived from a HTT patient with a poly-Q49 mutation

Row | Structure (SMILES) | IC50 [nM]
1 | Cc1cn2nc(-c3cc(F)c4nc(N(C)C5CC(C)(C)NC(C)(C)C5)oc4c3)ccc2n1 [Compound 504, 4-fluoro-N-methyl-6-(2-methylimidazo[1,2-b]pyridazin-6-yl)-N-(2,2,6,6-tetramethylpiperidin-4-yl)benzo[d]oxazol-2-amine] | 100 to 1000
2 | Cc1cn2nc(-c3cc(F)c4nc(N5CCC6(CN(C)C6)C5)oc4c3)cc(C)c2n1 [Compound 472, 6-(2,8-dimethylimidazo[1,2-b]pyridazin-6-yl)-4-fluoro-2-(2-methyl-2,6-diazaspiro[3.4]octan-6-yl)benzo[d]oxazole] | 100 to 1000
3 | Cc1cn2nc(-c3cc(F)c4nc(C5CCN(CC6CC6)CC5)nn4c3)cc(C)c2n1 [Compound 438, 2-(1-(cyclopropylmethyl)piperidin-4-yl)-6-(2,8-dimethylimidazo[1,2-b]pyridazin-6-yl)-8-fluoro-[1,2,4]triazolo[1,5-a]pyridine] | 100 to 1000
4 | Cc1cn2nc(-c3cc(F)c4nc(NC(=O)CC5CCCCN5C)nn4c3)cc(C)c2n1 (racemic) [Compound 328, N-(6-(2,8-dimethylimidazo[1,2-b]pyridazin-6-yl)-8-fluoro-[1,2,4]triazolo[1,5-a]pyridin-2-yl)-2-(1-methylpiperidin-2-yl)acetamide] | 100 to 1000
5 | Cn1cc2cc(-c3cc(F)c4nc(C5CCNCC5)cn4c3)ccc2n1 [Compound 11, 5-(8-fluoro-2-(piperidin-4-yl)imidazo[1,2-a]pyridin-6-yl)-2-methyl-2H-indazole] | 100 to 1000
6 | CN1CCC(c2cn3cc(-c4cc(F)c5nn(C)cc5c4)cc(F)c3n2)CC1 [Compound 26, 7-fluoro-5-(8-fluoro-2-(1-methylpiperidin-4-yl)imidazo[1,2-a]pyridin-6-yl)-2-methyl-2H-indazole] | 100 to 1000
7 | Cc1cn2nc(-c3cc(F)c4nc(C(=O)NC[C@H]5CCCCN5C)cn4c3)cc(C)c2n1 [Compound 335, 6-(2,8-dimethylimidazo[1,2-b]pyridazin-6-yl)-8-fluoro-N-[[(2R)-1-methyl-2-piperidyl]methyl]imidazo[1,2-a]pyridine-2-carboxamide] | 100 to 1000
8 | Cc1cc(-c2cc(F)c3[nH]c(C4CCNCC4)nc3c2)cc2cn(C)nc12 [Compound 142, 5-(7-fluoro-2-(piperidin-4-yl)-1H-benzo[d]imidazol-5-yl)-2,7-dimethyl-2H-indazole] | 1000 to 9000
9 | CNC12CC(c3cn4cc(-c5cc(C)c6nc(C)cn6n5)cc(F)c4n3)(C1)C2 [Compound 100, 3-(6-(2,8-dimethylimidazo[1,2-b]pyridazin-6-yl)-8-fluoroimidazo[1,2-a]pyridin-2-yl)-N-methylbicyclo[1.1.1] pentan-1-amine] | < 100
10 | Cc1cn2nc(-c3cc(F)c4nc(NC(=O)C5CCC(N(C)C)C5)cn4c3)cc(C)c2n1 (racemic) [Compound 128, rac-3-(dimethylamino)-N-(6-(2,8-dimethylimidazo[1,2-b]pyridazin-6-yl)-8-fluoroimidazo[1,2-a]pyridin-2-yl)cyclopentane-1-carboxamide] | < 100
11 | Cc1cn2nc(-c3cc(F)c4nc(N(C)C5CC(C)(C)NC(C)(C)C5)oc4c3)cc(C)c2n1 [Compound 467, 6-(2,8-dimethylimidazo[1,2-b]pyridazin-6-yl)-4-fluoro-N-methyl-N-(2,2,6,6-tetramethylpiperidin-4-yl)benzo[d]oxazol-2-amine] | 100 to 1000
12 | Fc1cc(-c2ccn3nccc3c2)cn2cc(C3CCNCC3)nc12 [Compound 34, 8-fluoro-2-(piperidin-4-yl)-6-(pyrazolo[1,5-a]pyridin-5-yl)imidazo[1,2-a]pyridine] | 1000 to 9000
13 | Cn1cc2cc(-c3cc(F)c4nc(C56CNC(C5)C6)cn4c3)cc(F)c2n1 [Compound 67] | 1000 to 9000
14 | Cc1cn2nc(-c3cc(F)c4[nH]c(C5CC6CCC(C5)N6)nc4c3)cc(C)c2n1 (stereo not drawn) [Compound 428, 6-(2-(8-azabicyclo[3.2.1]octan-3-yl)-7-fluoro-1H-benzo[d]imidazol-5-yl)-2,8-dimethylimidazo[1,2-b]pyridazine] | < 100
15 | COc1cc(-c2cc(F)c3nn(C4CCNCC4)nc3c2)nn2nc(C)nc12 [Compound 392, 6-(7-fluoro-2-(piperidin-4-yl)-2H-benzo[d][1,2,3]triazol-5-yl)-8-methoxy-2-methyl-[1,2,4]triazolo[1,5-b]pyridazine] | 100 to 1000
16 | Cc1cn2nc(-c3cc(F)c4nc(CC5CCN(C)CC5)cn4c3)cc(C)c2n1 [Compound 237, 6-(8-fluoro-2-((1-methylpiperidin-4-yl)methyl)imidazo[1,2-a]pyridin-6-yl)-2,8-dimethylimidazo[1,2-b]pyridazine] | < 100
17 | COc1cc(-c2cc(F)c3nc(C4CCNCC4)cn3c2)cn2cc(C)nc12 [Compound 89, 8-fluoro-8′-methoxy-2′-methyl-2-(piperidin-4-yl)-6,6′-biimidazo[1,2-a]pyridine] | 100 to 1000
18 | Cc1cn2cc(-c3cc(F)c4[nH]c(C5CCNCC5)nc4c3)cc(C)c2n1 [Compound 147, 5-(2,8-dimethylimidazo[1,2-a]pyridin-6-yl)-7-fluoro-2-(piperidin-4-yl)-1H-benzo[d]imidazole] | 1000 to 9000

Row | Structure (SMILES) | IC50 [nM]
19 | Cc1cn2nc(-c3cc(F)c4nc(C5CCC(N(C)C)CC5)nn4c3)cc(C)c2n1 (stereo not drawn) [Compound 447, 4-(6-(2,8-dimethylimidazo[1,2-b]pyridazin-6-yl)-8-fluoro-[1,2,4]triazolo[1,5-a]pyridin-2-yl)-N,N-dimethylcyclohexan-1-amine] | 100 to 1000
20 | Cc1cc(-c2cc(F)c3nc(C4CCNCC4)oc3c2)cc2cn(C)nc12 [Compound 157, 6-(2,7-dimethyl-2H-indazol-5-yl)-4-fluoro-2-(piperidin-4-yl)benzo[d]oxazole] | 100 to 1000
21 | Cc1nc2c(C)cc(-c3cc(F)c4nc(N5CCC(N(C)C)CC5)oc4c3)nn2n1 [Compound 496, 1-(6-(2,8-dimethyl-[1,2,4]triazolo[1,5-b]pyridazin-6-yl)-4-fluorobenzo[d]oxazol-2-yl)-N,N-dimethylpiperidin-4-amine] | 100 to 1000
22 | Cc1cn2nc(-c3cc(F)c4nc(C(=O)NC5CN(C(C)C)C5)cn4c3)cc(C)c2n1 [Compound 331, 6-(2,8-dimethylimidazo[1,2-b]pyridazin-6-yl)-8-fluoro-N-(1-isopropylazetidin-3-yl)imidazo[1,2-a]pyridine-2-carboxamide] | < 100
23 | Cc1cn2nc(-c3cc(F)c4nc(N5CCC(N6CCCC6)C5)oc4c3)cc(C)c2n1 (stereo not drawn) [Compound 476, 2-([1,3′-bipyrrolidin]-1′-yl)-6-(2,8-dimethylimidazo[1,2-b]pyridazin-6-yl)-4-fluorobenzo[d]oxazole] | 100 to 1000
24 | Cc1cn2nc(-c3cc(F)c4nc(N(C)C5CCNC(C)(C)C5)oc4c3)cc(C)c2n1 (single isomer, unassigned) [Compound 509] | 100 to 1000
25 | Cc1nc2c(C)cc(-c3cc(F)c4nc(N5CCC6(CCN(C)CC6)C5)oc4c3)nn2n1 [Compound 498, 6-(2,8-dimethyl-[1,2,4]triazolo[1,5-b]pyridazin-6-yl)-4-fluoro-2-(8-methyl-2,8-diazaspiro[4.5]decan-2-yl)benzo[d]oxazole] | 100 to 1000
26 | Cc1cn2nc(-c3cc(F)c4nc([C@@H]5CCNC5)cn4c3)cc(C)c2n1 (single isomer, unassigned) [Compound 189] | < 100
27 | Cc1cn2nc(-c3cc(F)c4nc(NC5CC(C)NC(C)C5)oc4c3)cc(C)c2n1 (stereo not drawn) [Compound 484, 6-(2,8-dimethylimidazo[1,2-b]pyridazin-6-yl)-N-(2,6-dimethylpiperidin-4-yl)-4-fluorobenzo[d]oxazol-2-amine] | < 100
28 | Cc1cn2nc(-c3cc(F)c4nc(NC(=O)C5CCCC(N(C)C)C5)cn4c3)cc(C)c2n1 (racemic) [Compound 247, 3-(dimethylamino)-N-(6-(2,8-dimethylimidazo[1,2-b]pyridazin-6-yl)-8-fluoroimidazo[1,2-a]pyridin-2-yl)cyclohexane-1-carboxamide] | 100 to 1000
29 | Cc1cn2nc(-c3cc(F)c4nc(N(C)C5CCN(C(C)C)CC5)oc4c3)cc(C)c2n1 [Compound 469, 6-(2,8-dimethylimidazo[1,2-b]pyridazin-6-yl)-4-fluoro-N-(1-isopropylpiperidin-4-yl)-N-methylbenzo[d]oxazol-2-amine] | 100 to 1000
30 | Cn1nc2ccc(-c3cc(F)c4[nH]c(C5CCNCC5)nc4c3)cc2n1 [Compound 146, 5-(7-fluoro-2-(piperidin-4-yl)-1H-benzo[d]imidazol-5-yl)-2-methyl-2H-benzo[d][1,2,3]triazole] | 1000 to 9000
31 | CCN1CCC(N(C)c2nc3c(F)cc(-c4cc(C)c5nc(C)cn5n4)cc3o2)CC1 [Compound 502, 6-(2,8-dimethylimidazo[1,2-b]pyridazin-6-yl)-N-(1-ethylpiperidin-4-yl)-4-fluoro-N-methylbenzo[d]oxazol-2-amine] | < 100
32 | Cc1cn2nc(-c3cc(F)c4nc(NC(=O)[C@H]5[C@@H]6CNC[C@@H]65)cn4c3)cc(C)c2n1 [Compound 246, (1R,5S,6r)-N-(6-(2,8-dimethylimidazo[1,2-b]pyridazin-6-yl)-8-fluoroimidazo[1,2-a]pyridin-2-yl)-3-azabicyclo[3.1.0]hexane-6-carboxamide] | < 100
33 | Cc1cn2nc(-c3cc(F)c4nn(C5CCNCC5)nc4c3)ccc2n1 [Compound 384, 4-fluoro-6-(2-methylimidazo[1,2-b]pyridazin-6-yl)-2-(piperidin-4-yl)-2H-benzo[d][1,2,3]triazole] | 100 to 1000
34 | Cc1cn2nc(-c3cc(F)c4nc(C5CCNC(C)C5)cn4c3)cc(C)c2n1 (stereo not drawn) [Compound 60, 6-(8-fluoro-2-(2-methylpiperidin-4-yl)imidazo[1,2-a]pyridin-6-yl)-2,8-dimethylimidazo[1,2-b]pyridazine] | < 100
35 | CCc1nc(C)cn2cc(-c3cc(F)c4nn(C5CCNCC5)nc4c3)cc12 [Compound 379, 6-(1-ethyl-3-methylpyrrolo[1,2-a]pyrazin-7-yl)-4-fluoro-2-(piperidin-4-yl)-2H-benzo[d][1,2,3]triazole] | 100 to 1000
36 | CNC1CC(C(=O)Nc2cn3cc(-c4cc(C)c5nc(C)cn5n4)cc(F)c3n2)C1 (stereo not drawn) [Compound 249, N-(6-(2,8-dimethylimidazo[1,2-b]pyridazin-6-yl)-8-fluoroimidazo[1,2-a]pyridin-2-yl)-3-(methylamino)cyclobutane-1-carboxamide] | < 100
